Laboratory results: patent publication US8309726B2, “Substituted piperazine compounds of formula 8” (Council of Scientific & Industrial Research, priority 2007, dated 2012)
Like-named read-outs stand apart in the source and are kept apart here.

Key:
human tumour cell lines = experiment: In vitro anticancer activity against sixty human tumour cell lines (NCI, SRB assay); type: cell-based; conditions: for Log10LC50 mean graph midpoint (MG_MID): 50% cell death; for Log10LC50 mean graph midpoint (MG_MID) / Log10GI50 mean graph midpoint (MG_MID) / Log10TGI50 mean graph midpoint (MG_MID): 48 h continuous drug exposure, SRB assay; for Log10GI50 mean graph midpoint (MG_MID): 50% cell growth inhibition; for GI50: Homo sapiens; for antiproliferative activity: against most of the tested cell lines; for Log10TGI50 mean graph midpoint (MG_MID): total cell growth inhibition
Method: (§1) In vitro evaluation of cytotoxic activity: Compounds were evaluated for in vitro anticancer activity against sixty human tumour cells derived from nine cancer types (colon, prostate, oral, lung, cervix and breast cancer) as shown in (Table 1, 2 and 3) 8b, 8c, 8d, and 8e, were evaluated for in vitro anticancer activity against sixty human tumour cells derived from nine cancer types (leukemia, non-small-cell lung, colon, CNS, melanoma, ovarian, prostate, and breast cancer) as shown in (Table 2 and 3). For the compound, dose response curves for each cell line were measured at a minimum of five concentrations at 10 fold dilutions. A protocol of 48 h continuous drug exposure was used and a sulforhodamine B (SRB) protein assay was used to estimate cell viability or growth. The concentration causing 50% cell growth inhibition (GI50), total cell growth inhibition (TGI 0% growth) and 50% cell death (LC50, −50% growth) compared with the control was calculated. The mean graph midpoint values of log10 TGI and log10 LC50 as well as log10 GI50 for 8a, 8b, 8c, 8d, and 8e, are listed in (Table 2 and 3).
(§2) Each cancer type represents the average of six to nine different cancer cell lines. The compounds 8a, 8b, 8c, 8d, 8e and 8f were evaluated for in vitro anticancer activity against sixty human tumour cells derived from nine cancer types (leukemia, colon, prostate, renal melanoma CNS, lung, cervix and breast cancer) as shown in Table 3. Compounds 8b, 8c, 8d and 8e show promising cytotoxicity against some cancer cell lines (Table 2). Compounds 8b, 8c, 8d and 8e have been evaluated for their in vitro cytotoxicity in selected human cancer cell lines of colon (Colo205), lung (Hop-62), cervix (SiHa), prostate (DU145, PC3), oral (DWD, HT1080), and breast (MCF7, Zr-75-1) origin. A protocol of 48 h continuous drug exposure has been used and an […] has been used to estimate cell viability or growth. The results are expressed as percent of cell growth determined relative to that of untreated control cells. […] In the breast cancer panel, the growth of BT-549, MCF-7 cell lines are 10.3, and 17.6. In the prostate cancer panel, the growth of DU-145, PC-3 cell lines are 11.3, and 19.2. The GI50 values of compound In the CNS cancer panel, the growth of SF-539, SNB-75 cell lines are […]. […] In vitro cytotoxicity of compounds 8a, and 8b in selected cancer cell lines has been illustrated in Table 3. The average GI50 values for each cancer panel of compounds 8b, 8c, 8d and 8e have been illustrated in above Table 2 and 3

[1] = system: Nonsmall-cell-lung cancer cell lines; experiment: In vitro cytotoxicity, non-small-cell lung panel; type: cell-based; conditions: Homo sapiens, average of six to nine different cancer cell lines, 48 h, SRB, read-out: Log GI50 (concentration in mol/L causing 50% growth inhibition) (converted)
Method: as §1, §2

Colon cancer cell lines = experiment: In vitro cytotoxicity, colon panel; type: cell-based; conditions: Homo sapiens, average of six to nine different cancer cell lines, 48 h, SRB, read-out: Log GI50 (concentration in mol/L causing 50% growth inhibition) (converted)
Method: as §1, §2

[2] = system: MCF-7 cell line (breast cancer); experiment: In vitro cytotoxicity, MCF-7; type: cell-based; conditions: Homo sapiens, MCF7
Method: (§3) In vitro evaluation of cytotoxic activity: Compounds were evaluated for in vitro anticancer activity against sixty human tumour cells derived from nine cancer types (colon, prostate, oral, lung, cervix and breast cancer) as shown in (Table 1, 2 and 3) 8b, 8c, 8d, and 8e, were evaluated for in vitro anticancer activity against sixty human tumour cells derived from nine cancer types (leukemia, non-small-cell lung, colon, CNS, melanoma, ovarian, prostate, and breast cancer) as shown in (Table 2 and 3). For the compound, dose response curves for each cell line were measured at a minimum of five concentrations at 10 fold dilutions. […]
(§4) Each cancer type represents the average of six to nine different cancer cell lines. The compounds 8a, 8b, 8c, 8d, 8e and 8f were evaluated for in vitro anticancer activity against sixty human tumour cells derived from nine cancer types (leukemia, colon, prostate, renal melanoma CNS, lung, cervix and breast cancer) as shown in Table 3. […] Compounds 8b, 8c, 8d and 8e have been evaluated for their in vitro cytotoxicity in selected human cancer cell lines of colon (Colo205), lung (Hop-62), cervix (SiHa), prostate (DU145, PC3), oral (DWD, HT1080), and breast (MCF7, Zr-75-1) origin. […] The results are expressed as percent of cell growth determined relative to that of untreated control cells. […]

Renal cancer cell lines = experiment: In vitro cytotoxicity, renal panel; type: cell-based; conditions: Homo sapiens, average of six to nine different cancer cell lines, 48 h, SRB, read-out: Log GI50 (concentration in mol/L causing 50% growth inhibition) (converted)
Method: as §1, §2

[3] = system: renal and prostate cancer panels; experiment: In vitro cytotoxicity, renal and prostate cancer panels; type: cell-based; conditions: Homo sapiens; range over renal and prostate cancer panels
Method: as §3, §4

Breast cancer cell lines = experiment: In vitro cytotoxicity, breast panel; type: cell-based; conditions: Homo sapiens, average of six to nine different cancer cell lines, 48 h, SRB, read-out: Log GI50 (concentration in mol/L causing 50% growth inhibition) (converted)
Method: as §1, §2

[4] = system: T47D cell line (breast cancer); experiment: In vitro cytotoxicity, T47D; type: cell-based; conditions: Homo sapiens, breast cancer cell panel
Method: as §3, §4

[5] = system: CNS SF-295, SF-539, SNB-19 and SNB-75 cell lines; experiment: In vitro cytotoxicity, CNS cell lines SF-295, SF-539, SNB-19, SNB-75; type: cell-based; conditions: Homo sapiens; range over CNS SF-295, SF-539, SNB-19 and SNB-75
Method: as §3, §4

[6] = system: Leukemia cancer cell lines; experiment: In vitro cytotoxicity, leukemia panel; type: cell-based; conditions: Homo sapiens, average of six to nine different cancer cell lines, 48 h, SRB, read-out: Log GI50 (concentration in mol/L causing 50% growth inhibition) (converted)
Method: as §1, §2

[7] = system: Melanoma cancer cell lines; experiment: In vitro cytotoxicity, melanoma panel; type: cell-based; conditions: Homo sapiens, average of six to nine different cancer cell lines, 48 h, SRB, read-out: Log GI50 (concentration in mol/L causing 50% growth inhibition) (converted)
Method: as §1, §2

CNS cancer cell lines = experiment: In vitro cytotoxicity, CNS panel; type: cell-based; conditions: Homo sapiens, average of six to nine different cancer cell lines, 48 h, SRB, read-out: Log GI50 (concentration in mol/L causing 50% growth inhibition) (converted)
Method: as §1, §2

calf thymus (CT) DNA = experiment: Thermal denaturation studies with duplex-form calf thymus DNA; type: binding; conditions: for ΔTm (° C.) after incubation at 37° C. for 0 h / ΔTm (° C.) after incubation at 37° C. for 18 h / ΔTm (° C.) after incubation at 37° C. for 36 h: [ANCD]/[DNA] molar ratio 1:5, CT-DNA 100 μM, ligand 20 μM, sodium phosphate buffer pH 7.00; for ΔTm (° C.) after incubation at 37° C. for 0 h: 0 h at 37° C.; for ΔTm (° C.) after incubation at 37° C. for 18 h: 18 h at 37° C.; for ΔTm (° C.) after incubation at 37° C. for 36 h: 36 h at 37° C.; for Course of ΔTm over incubation at 0 hr, 18 hr and 36 hr: incubation at 37° C., [ANCD]/[DNA] 1:5
Method: Compounds were subjected to thermal denaturation studies with duplex-form calf thymus DNA (CT-DNA) using an adaptation of a reported procedure. Working solutions in aqueous buffer (10 mM NaH2PO4/Na2HPO4, 1 mM Na2EDTA, pH 7.00+/−0.01) containing CT-DNA (100 μM in phosphate) and the PBD (20 μM) were prepared by addition of concentrated ANCD solutions in DMSO to obtain a fixed [ANCD]/[DNA] molar ratio of 1:5. The DNA-ANCD solutions were incubated at 37° C. for 0, 18, and 36 h prior to analysis. Samples were monitored at 260 nm using a Beckman DU-7400 spectrophotometer fitted with high performance temperature controller, and heating was applied at 1° C. min^−1 in the 40-90° C. range. DNA helix coil transition temperatures (Tm) were obtained from the maxima in the (dA260)/dT derivative plots. Results are given as the mean+/−standard deviation from three determinations and are corrected for the effects of DMSO co-solvent using a linear correction term. Drug-induced alterations in DNA melting behaviour are given by: ΔTm=Tm (DNA+ANCD)−Tm (DNA alone), where the Tm value for the ANCD-free CT-DNA is 69.0+/−0.01.

[8] = system: Prostate cancer cell lines; experiment: In vitro cytotoxicity, prostate panel; type: cell-based; conditions: Homo sapiens, average of six to nine different cancer cell lines, 48 h, SRB, read-out: Log GI50 (concentration in mol/L causing 50% growth inhibition) (converted)
Method: as §1, §2

[9] = system: COLO 205 cell line (colon cancer); experiment: In vitro cytotoxicity, COLO 205; type: cell-based; conditions: Homo sapiens; colon cancer COLO 205
Method: as §3, §4

[10] = system: KM12 cell line (colon cancer); experiment: In vitro cytotoxicity, KM12; type: cell-based; conditions: Homo sapiens
Method: as §3, §4

[11] = system: HCT-116 cell line (colon cancer); experiment: In vitro cytotoxicity, HCT-116; type: cell-based; conditions: Homo sapiens; colon cancer HCT-116
Method: as §3, §4

[12] = system: Ovarian cancer cell lines; experiment: In vitro cytotoxicity, ovarian panel; type: cell-based; conditions: Homo sapiens, average of six to nine different cancer cell lines, 48 h, SRB, read-out: Log GI50 (concentration in mol/L causing 50% growth inhibition) (converted)
Method: as §1, §2

[13] = system: EKVX cell line (non-small cell lung cancer); experiment: In vitro cytotoxicity, EKVX; type: cell-based; conditions: Homo sapiens, non-small cell lung cancer panel
Method: as §3, §4

[14] = system: DU-145 cell line (prostate cancer); experiment: In vitro cytotoxicity, DU-145; type: cell-based; conditions: Homo sapiens; DU-145, prostate cancer panel; unit inferred; read-out: growth (GI50)
Method: as §3, §4

HL-60 (TB) (leukemia) = experiment: In vitro cytotoxicity, HL-60 (TB); type: cell-based; conditions: Homo sapiens, leukemia panel
Method: as §3, §4

[15] = system: BT-549 cell line (breast cancer); experiment: In vitro cytotoxicity, BT-549; type: cell-based; conditions: Homo sapiens; BT-549, breast cancer panel; unit inferred; read-out: growth (GI50)
Method: as §3, §4

[16] = system: NCI-H226 cell line (non-small cell lung cancer); experiment: In vitro cytotoxicity, NCI-H226; type: cell-based; conditions: Homo sapiens; NCI-H226, non-small cell lung cancer panel
Method: as §3, §4

[17] = system: PC-3 cell line (prostate cancer); experiment: In vitro cytotoxicity, PC-3; type: cell-based; conditions: Homo sapiens; PC-3, prostate cancer panel; unit inferred; read-out: growth (GI50)
Method: as §3, §4

## COc1cc(C(=O)N2CCN(c3ncnc4ccccc34)CC2)c(N)cc1OCc1ccccc1 [Compound 8d, [2-amino-4-(benzyloxy)-5-methoxyphenyl][4-(4-quinazolinyl)piperazino]methanone]
Human tumour cell lines
  Log10LC50 mean graph midpoint (MG_MID): −4.62
  Log10GI50 mean graph midpoint (MG_MID): −5.62
  antiproliferative activity: nanomolar to low micromolar concentrations
  Log10TGI50 mean graph midpoint (MG_MID): −5.62
Human tumour cell lines; sixty cell lines in nine cell panels
  GI50: < 20 µM
[1]
  GI50: 1.35 µM
Colon cancer cell lines
  GI50: 5.13 µM
[2]; MCF-7, breast cancer cell panel, read-out: GI50
  GI50: 12.6 µM
Renal cancer cell lines
  GI50: 5.5 µM
[3]
  GI50: 1.16 to 32.4 µM
Breast cancer cell lines
  GI50: 7.08 µM
[4]
  GI50: 13.2 µM
[5]
  GI50: 11.8 to 24.2 µM
[6]
  GI50: 4.07 µM
[7]
  GI50: 7.24 µM
CNS cancer cell lines
  GI50: 1.78 µM
Calf thymus (CT) DNA
  ΔTm (° C.) after incubation at 37° C. for 0 h: 1.5 °C
  ΔTm (° C.) after incubation at 37° C. for 18 h: 1.9 °C
  ΔTm (° C.) after incubation at 37° C. for 36 h: 2.7 °C
  Course of ΔTm over incubation at 0 hr, 18 hr and 36 hr: gradually increased
[8]
  GI50: 7.24 µM
[9]
  GI50: 11.2 µM
[10]
  GI50: 14.6 µM
[11]
  GI50: 16.3 µM
[12]
  GI50: 11.7 µM

## COc1cc(C(=O)N2CCN(c3ccccn3)CC2)c(N)cc1OCc1ccccc1 [Compound 8b, [2-amino-4-(benzyloxy)-5-methoxyphenyl][4-(2-pyridyl)piperazino]methanone]
Human tumour cell lines
  Log10LC50 mean graph midpoint (MG_MID): −4.05
  Log10GI50 mean graph midpoint (MG_MID): −5.62
  antiproliferative activity: nanomolar to low micromolar concentrations
  Log10TGI50 mean graph midpoint (MG_MID): −5.12
Human tumour cell lines; fifty-five cell lines in nine cancer cell panels
  GI50: < 10 µM
[1]
  GI50: 4.57 µM
[13]
  GI50: 12.4 µM
Colon cancer cell lines
  GI50: 6.76 µM
[2]; MCF-7, breast cancer panel, unit inferred, read-out: growth (GI50)
  GI50: 17.6 µM
Renal cancer cell lines
  GI50: 5.62 µM
[14]
  GI50: 11.3 µM
Breast cancer cell lines
  GI50: 6.76 µM
HL-60 (TB) (leukemia)
  GI50: 16.5 µM
[15]
  GI50: 10.3 µM
[6]
  GI50: 5.5 µM
[16]
  GI50: 13.6 µM
[17]
  GI50: 19.2 µM
[7]
  GI50: 1.78 µM
CNS cancer cell lines
  GI50: 5.89 µM
Calf thymus (CT) DNA
  ΔTm (° C.) after incubation at 37° C. for 0 h: 1.5 °C
  ΔTm (° C.) after incubation at 37° C. for 18 h: 2.1 °C
  ΔTm (° C.) after incubation at 37° C. for 36 h: 2.6 °C
  Course of ΔTm over incubation at 0 hr, 18 hr and 36 hr: gradually increased
[8]
  GI50: 16.6 µM
[12]
  GI50: 5.75 µM
